# Test results published in patent US9340577B2, “HLA binding motifs and peptides and their uses” (priority 1992, dated 2016).
# No end group written: not given here.
# Legend:
# Assay in all cases: biochemical
# HLA-A1 (A*0101) = HLA-A1 (A*0101) (Homo sapiens, UniProt P04439, A114D/A174V/A182V/D101N/D185E/E176A/E190D/L180R/Q94H/R68K/S129P/T187R/V100A/V91M/W191G); type: binding
# A*2902 = A*2902 (Homo sapiens, UniProt P04439, A270S/D101N/D185E/E176V/E277Q/E87Q/F33T/G231S/H175R/I121M/I218V/I322F/K168Q/L300P/L318F/M331R/P208A/P217A/Q86L/T323A/T345S/V100A/V358M); type: binding
# DR4w4 (DRB1*0401) = DR4w4 (DRB1*0401) (Homo sapiens, UniProt P01903+P01911, A100K/A169T/F76Y/I96L/K127E/L162R/M171V/N62H/P40V/Q125Y/R42H/S133A/S149N/S66Y/V115G/V209L/W38E); type: binding
# DR7 (DRB1*0701) = DR7 (DRB1*0701) (Homo sapiens, UniProt P01903+P01911, A100R/A102G/A103Q/D57E/D86V/E43K/F76Y/K127E/L162R/M171V/P40G/Q125H/Q99D/R33Q/R42Y/R54Q/S133A/S66F/T210M/V115G/Y107V/Y59L/Y89S); type: binding
# DRB1*0301 = DRB1*0301 (Homo sapiens, UniProt P01903+P01911, A100K/A102G/A103R/A169T/F55Y/I96L/K41T/L162R/M171V/P40S/Q125H/Q178H/Q39Y/R42S/S66N/T106N/T262R/W38E/Y61H); type: binding
# Sequence of DRB1*0301 (P01903 26-254 limits assumed, other chains not shown): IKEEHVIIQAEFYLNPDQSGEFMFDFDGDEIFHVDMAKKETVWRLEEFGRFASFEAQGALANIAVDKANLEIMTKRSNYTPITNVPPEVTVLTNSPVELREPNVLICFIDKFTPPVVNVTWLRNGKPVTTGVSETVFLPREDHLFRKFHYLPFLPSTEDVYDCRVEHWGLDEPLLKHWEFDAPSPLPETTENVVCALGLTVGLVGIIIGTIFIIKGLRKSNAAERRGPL
# DRB1*0405 = DRB1*0405 (Homo sapiens, UniProt P01903+P01911, A100R/A169T/D86S/F76Y/I96L/K127E/L162R/M171V/N62H/P40V/Q125Y/R42H/S133A/S149N/S66Y/V115G/V209L/W38E); type: binding
# DRB1*0802 = DRB1*0802 (Homo sapiens, UniProt P01903+P01911, A100R/A103L/A169T/F76Y/H45Y/I96F/K41T/L162R/M171V/P40S/Q125H/Q178H/Q39Y/Q99D/R218S/R42G/S66Y/V115G/W38E); type: binding
# DRB1*0901 = DRB1*0901 (Homo sapiens, UniProt P01903+P01911, A100R/A103E/D57H/D86V/F55Y/F60I/F76Y/I96F/K127E/L162R/M171V/P40D/Q125H/Q99R/R33Q/R42F/S133A/S66N/T210M/V115G/W38K/Y107V/Y59G/Y89S); type: binding
# DRB1*1201 = DRB1*1201 (Homo sapiens, UniProt P01903+P01911, A100R/A169T/D57E/D86V/F55L/H45Y/K41T/L162R/M171V/P40S/Q125H/Q178H/Q39Y/Q99D/R42G/S66L/T262R/V114A/V67L/W38E/Y59H/Y61H/Y89S); type: binding
# DRB1*1302 = DRB1*1302 (Homo sapiens, UniProt P01903+P01911, A100E/A169T/K41T/L162R/M171V/P40S/Q125H/Q178H/Q39Y/Q99D/R42S/S66N/T262R/V115G/W38E/Y61H); type: binding
# Sequence of DRB1*1302 (P01903 26-254 limits assumed, other chains not shown): as above
# DRB1*1501 = DRB1*1501 (Homo sapiens, UniProt P01903+P01911); type: binding
# DRB3*0101 = DRB3*0101 (Homo sapiens, UniProt P01903+P79483); type: binding
# DRB4*0101 = DRB4*0101 (Homo sapiens, UniProt P01903+P13762, G164S); type: binding
# DRB1*1101 = DRB1*1101 (Homo sapiens, UniProt P01903+P01911, A100R/A169T/A87E/I96F/K41T/L162R/M171V/P40S/Q125H/Q178H/Q39Y/Q99D/R42S/S66Y/T262R/V115G/W38E); conditions: Binding affinity DRB1 *1101
# Sequence of DRB1*1101 (P01903 26-254 limits assumed, other chains not shown): as above
# DRB5*0101 = DRB5*0101 (Homo sapiens, UniProt P01903+Q30154); conditions: Binding affinity DRB5 *0101
# DR1 (DRB1*0101) = DR1 (DRB1*0101) (Homo sapiens, UniProt P01903+P01911, A100R/D57E/F55L/F60I/F76Y/I96L/L162R/M171V/P40L/Q125E/R42F/V115G/Y59C); type: binding
# A*3002 = A*3002 (Homo sapiens, UniProt P04439, D101N/D140H/D185E/E176R/F33S/G80R/H175R/K168Q/Q94H/R138E/R41S/V100E); type: binding
# Sequence of A*3002 (P04439 whole entry, looked up, the tested form may be a part, stated change not applied): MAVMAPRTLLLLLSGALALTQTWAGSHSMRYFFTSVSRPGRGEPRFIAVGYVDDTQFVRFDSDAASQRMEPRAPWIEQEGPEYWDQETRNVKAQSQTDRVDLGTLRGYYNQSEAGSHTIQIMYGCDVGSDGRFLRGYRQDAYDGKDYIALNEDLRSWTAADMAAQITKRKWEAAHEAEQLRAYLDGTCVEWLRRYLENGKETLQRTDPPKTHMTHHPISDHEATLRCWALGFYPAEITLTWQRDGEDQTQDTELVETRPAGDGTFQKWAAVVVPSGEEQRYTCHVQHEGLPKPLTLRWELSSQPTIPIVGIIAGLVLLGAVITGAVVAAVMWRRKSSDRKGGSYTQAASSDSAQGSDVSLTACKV
sequence,measurement,setting,value
CSMSYTWTGA [Peptide 1489.14],IC50,HLA-A1 (A*0101),> 20000 nM
same,IC50,A*2902,> 20000 nM
DGVSHAQLPARRAEP [Peptide 1543.18],IC50,DR4w4 (DRB1*0401),> 20000 nM
same,IC50,DR7 (DRB1*0701),> 20000 nM
same,IC50,DRB1*0301,2.48 µM
same,IC50,DRB1*0405,> 20000 nM
same,IC50,DRB1*0802,> 20 µM
same,IC50,DRB1*0901,> 20 µM
same,IC50,DRB1*1201,> 20 µM
same,IC50,DRB1*1302,> 20 µM
same,IC50,DRB1*1501,> 20 µM
same,IC50,DRB3*0101,> 20 µM
same,IC50,DRB4*0101,1930 nM
same,IC50,DRB1*1101,> 20000 nM
same,IC50,DRB5*0101,0.392 µM
EDLRTLQQLFLSTLS [Peptide 1543.21],IC50,DR1 (DRB1*0101),20 nM
same,IC50,DR4w4 (DRB1*0401),34 nM
same,IC50,DR7 (DRB1*0701),390 nM
same,IC50,DRB1*0301,6.77 µM
same,IC50,DRB1*0405,582 nM
same,IC50,DRB1*0802,12.8 µM
same,IC50,DRB1*0901,15.5 µM
same,IC50,DRB1*1201,0.958 µM
same,IC50,DRB1*1302,0.0075 µM
same,IC50,DRB1*1501,0.141 µM
same,IC50,DRB3*0101,> 20 µM
same,IC50,DRB4*0101,17 nM
same,IC50,DRB1*1101,279 nM
same,IC50,DRB5*0101,> 20 µM
FSITNWLWY [Peptide 9015.0008],IC50,HLA-A1 (A*0101),74 nM
same,IC50,A*2902,37 nM
same,IC50,A*3002,870 nM
GCWRQTSREPRESTV [Peptide 1543.46],IC50,DR1 (DRB1*0101),2640 nM
same,IC50,DR4w4 (DRB1*0401),1840 nM
same,IC50,DR7 (DRB1*0701),72 nM
same,IC50,DRB1*0301,0.902 µM
same,IC50,DRB1*0405,2300 nM
same,IC50,DRB1*0802,0.356 µM
same,IC50,DRB1*0901,3.2 µM
same,IC50,DRB1*1201,> 20 µM
same,IC50,DRB1*1302,> 20 µM
same,IC50,DRB1*1501,> 20 µM
same,IC50,DRB3*0101,> 20 µM
same,IC50,DRB4*0101,> 20000 nM
same,IC50,DRB1*1101,144 nM
same,IC50,DRB5*0101,4.27 µM
ITKIQNFRVY [Peptide 9015.0173],IC50,HLA-A1 (A*0101),9470 nM
same,IC50,A*2902,1800 nM
IVNRVRQGY [Peptide 1595.07],IC50,HLA-A1 (A*0101),19800 nM
same,IC50,A*2902,2030 nM
same,IC50,A*3002,6.3 nM
LADQLIHMHY [Peptide 9015.0186],IC50,HLA-A1 (A*0101),8.1 nM
same,IC50,A*2902,3070 nM
same,IC50,A*3002,817 nM
LFDQLIHLY [Peptide 9018.0027],IC50,HLA-A1 (A*0101),83 nM
same,IC50,A*2902,45 nM
same,IC50,A*3002,10 nM
LFDQLIHMHY [Peptide 9018.0033],IC50,HLA-A1 (A*0101),4070 nM
same,IC50,A*2902,280 nM
same,IC50,A*3002,47 nM
LSQMVQWAY [Peptide 1580.03],IC50,HLA-A1 (A*0101),25 nM
same,IC50,A*2902,124 nM
same,IC50,A*3002,1.8 nM
LTDQLIHMHY [Peptide 9018.0032],IC50,HLA-A1 (A*0101),6.6 nM
same,IC50,A*3002,350 nM
LYCYEQLSDSSDEDE [Peptide 1543.13],IC50,DR1 (DRB1*0101),5690 nM
same,IC50,DR4w4 (DRB1*0401),1120 nM
same,IC50,DR7 (DRB1*0701),9770 nM
same,IC50,DRB1*0301,> 20 µM
same,IC50,DRB1*0405,89 nM
same,IC50,DRB1*0802,> 20 µM
same,IC50,DRB1*0901,> 20 µM
same,IC50,DRB1*1201,> 20 µM
same,IC50,DRB1*1302,> 20 µM
same,IC50,DRB1*1501,> 20 µM
same,IC50,DRB3*0101,> 20 µM
same,IC50,DRB4*0101,12700 nM
same,IC50,DRB1*1101,3380 nM
same,IC50,DRB5*0101,> 20 µM
LYDQLIHMHY [Peptide 9018.0034],IC50,A*2902,123 nM
same,IC50,A*3002,55 nM
MSDSQWIKY [Peptide 1593.05],IC50,HLA-A1 (A*0101),10 nM
same,IC50,A*2902,839 nM
same,IC50,A*3002,434 nM
NSNTKATLLY [Peptide 1580.16],IC50,A*2902,299 nM
same,IC50,A*3002,470 nM
NTDKSLVKY [Peptide 9018.0008],IC50,HLA-A1 (A*0101),7.3 nM
same,IC50,A*2902,5430 nM
same,IC50,A*3002,3010 nM
NYLVKHHMY [Peptide 9018.0037],IC50,HLA-A1 (A*0101),305 nM
same,IC50,A*2902,63 nM
same,IC50,A*3002,12 nM
QERPRKLPQLCTELQ [Peptide 1543.22],IC50,DR1 (DRB1*0101),> 20000 nM
same,IC50,DR4w4 (DRB1*0401),5120 nM
same,IC50,DR7 (DRB1*0701),> 20000 nM
same,IC50,DRB1*0301,> 20 µM
same,IC50,DRB1*0405,> 20000 nM
same,IC50,DRB1*0802,> 20 µM
same,IC50,DRB1*0901,> 20 µM
same,IC50,DRB1*1201,11.7 µM
same,IC50,DRB1*1302,> 20 µM
same,IC50,DRB1*1501,> 20 µM
same,IC50,DRB3*0101,> 20 µM
same,IC50,DRB4*0101,81 nM
same,IC50,DRB1*1101,> 20000 nM
same,IC50,DRB5*0101,> 20 µM
QTKGLGISY [Peptide 9015.0031],IC50,HLA-A1 (A*0101),> 20000 nM
same,IC50,A*2902,> 20000 nM
same,IC50,A*3002,715 nM
SSNLQGKLY [Peptide 86.0139],IC50,HLA-A1 (A*0101),3030 nM
same,IC50,A*2902,15900 nM
same,IC50,A*3002,62 nM
SSSKVSQNY [Peptide 9015.0011],IC50,A*2902,1760 nM
same,IC50,A*3002,32 nM
TELNTSLQDIEITCV [Peptide 1543.34],IC50,DR1 (DRB1*0101),> 20000 nM
same,IC50,DR4w4 (DRB1*0401),> 20000 nM
same,IC50,DR7 (DRB1*0701),> 20000 nM
same,IC50,DRB1*0301,> 20 µM
same,IC50,DRB1*0405,> 20000 nM
same,IC50,DRB1*0802,5.52 µM
same,IC50,DRB1*0901,> 20 µM
same,IC50,DRB1*1201,> 20 µM
same,IC50,DRB1*1302,7.07 µM
same,IC50,DRB1*1501,> 20 µM
same,IC50,DRB3*0101,> 20 µM
same,IC50,DRB4*0101,922 nM
same,IC50,DRB1*1101,> 20000 nM
same,IC50,DRB5*0101,> 20 µM
VSIEWRKRRY [Peptide 9015.0183],IC50,HLA-A1 (A*0101),> 20000 nM
same,IC50,A*2902,> 20000 nM
same,IC50,A*3002,231 nM
VTFDPIPIHY [Peptide 9015.0153],IC50,A*2902,619 nM
same,IC50,A*3002,380 nM
VTRRANGWFY [Peptide 9018.0011],IC50,HLA-A1 (A*0101),25 nM
same,IC50,A*2902,905 nM
same,IC50,A*3002,0.71 nM
WFDITKWLWY [Peptide 9015.0160],IC50,A*3002,3390 nM
WFDITNWLWY [Peptide 9015.0161],IC50,HLA-A1 (A*0101),986 nM
same,IC50,A*2902,150 nM
same,IC50,A*3002,1660 nM
WFSITNWLWY [Peptide 9015.0159],IC50,A*2902,30 nM
YRHYQYSLYGKTLEE [Peptide 1543.58],IC50,DR1 (DRB1*0101),11 nM
same,IC50,DR4w4 (DRB1*0401),4.1 nM
same,IC50,DR7 (DRB1*0701),146 nM
same,IC50,DRB1*0301,> 20 µM
same,IC50,DRB1*0405,25 nM
same,IC50,DRB1*0802,0.41 µM
same,IC50,DRB1*0901,0.273 µM
same,IC50,DRB1*1201,12 µM
same,IC50,DRB1*1302,0.026 µM
same,IC50,DRB1*1501,2.9 µM
same,IC50,DRB3*0101,> 20 µM
same,IC50,DRB4*0101,2540 nM
same,IC50,DRB1*1101,953 nM
same,IC50,DRB5*0101,0.64 µM
